# According to patent US4182878A, “1-Phenyl-1H-pyrazolo[3,4-d]pyrimidine-4-carbonitrile and a method for its preparation” (The Lion Dentrifice Co., Ltd., priority 1977, dated 1980):
# Tested on: Ehrlich's tumor cells
# Assay: Carcinostatic activity in ddY mice subcutaneously inoculated with Ehrlich's tumor cells
# Assay type: in vivo
# Details: 14 days after inoculation; 1 mg daily intraabdominal injection; dosage period 10 days (I, IV) or 7 days (XI, VI, X)
# Procedure: In addition to the foregoing examples of preparation processes, Compounds I, IV, VI, X and XI were evaluated with respect to their carcinostatic activities and acute toxicities by animal tests as follows.
# Each of mice (ddY) having a body weight of about 25 g was subcutaneously innoculated with 3×10^6 of Ehrlich's tumor cells, and the thus inoculated mice were divided into 5 "sample" groups and 3 "control" groups, each group consisting of five or four mice. The thus treated mice belonging to the control groups were observed over a period of 14 days. On the other hand, each mouse belonging to the sample groups was given a 1 mg dose of Compounds I, IV, VI, XI or X by injection into the abdominal coelom every day during the period beginning after 24 hours from the innoculation of the tumor cells, and as indicated in the table below.
# At the end of the 14-day period following the above-mentioned innoculation of the tumor cells, the tumor tissues of each mouse were taken out and weighed, so that comparison could be made between the weights of the tumor tissues taken from the sample groups and the control groups. Further in the table, "Toxicity" is expressed by the number of mice died in the group during the 14-day period following the transplantation of the cancer cells and "Evaluation" is based on the ratios of S/C in percentages and expressed by "++" when the percentage is 0-25%, "+" when the percentage is 26-50%, and "±" when the percentage is 51-75%.
row,SMILES,Weight of tumor tissues in the sample group (S)
1,"N#Cc1ncnc2c1cnn2-c1ccccc1 [Compound I, 1-phenyl-1H-pyrazolo[3,4-d]pyrimidine-4-carbonitrile]",0.43 ± 0.40 g
2,"O=C(O)c1ncnc2c1cnn2-c1ccccc1 [Compound X, 1-phenyl-1H-pyrazolo[3,4-d]pyrimidine-4-carboxylic acid]",1.14 ± 0.27 g
3,"NC(=NO)c1ncnc2c1cnn2-c1ccccc1 [Compound VI, 1-phenyl-1H-pyrazolo[3,4-d]pyrimidine-4-carboxamidoxime]",0.43 ± 0.15 g
4,"NC(=S)c1ncnc2c1cnn2-c1ccccc1 [Compound XI, 1-phenyl-1H-pyrazolo[3,4-d]pyrimidine-4-thiocarboxamide]",0.63 ± 0.08 g
5,"NC(=O)c1ncnc2c1cnn2-c1ccccc1 [Compound IV, 1-phenyl-1H-pyrazolo[3,4-d]pyrimidine-4-carboxamide]",3.05 ± 1.40 g

# Same assay, conditions: based on the ratios of S/C in percentages
row,SMILES,Evaluation
1,"N#Cc1ncnc2c1cnn2-c1ccccc1 [Compound I, 1-phenyl-1H-pyrazolo[3,4-d]pyrimidine-4-carbonitrile]",++ (the percentage is 0-25%)
2,"O=C(O)c1ncnc2c1cnn2-c1ccccc1 [Compound X, 1-phenyl-1H-pyrazolo[3,4-d]pyrimidine-4-carboxylic acid]",± (the percentage is 51-75%)
3,"NC(=NO)c1ncnc2c1cnn2-c1ccccc1 [Compound VI, 1-phenyl-1H-pyrazolo[3,4-d]pyrimidine-4-carboxamidoxime]",+ (the percentage is 26-50%)
4,"NC(=S)c1ncnc2c1cnn2-c1ccccc1 [Compound XI, 1-phenyl-1H-pyrazolo[3,4-d]pyrimidine-4-thiocarboxamide]",+ (the percentage is 26-50%)
5,"NC(=O)c1ncnc2c1cnn2-c1ccccc1 [Compound IV, 1-phenyl-1H-pyrazolo[3,4-d]pyrimidine-4-carboxamide]",± (the percentage is 51-75%)

# Same assay, conditions: conclusion in words from the table
row,SMILES,effectiveness in preventing the multiplication of cancer cells
1,"N#Cc1ncnc2c1cnn2-c1ccccc1 [Compound I, 1-phenyl-1H-pyrazolo[3,4-d]pyrimidine-4-carbonitrile]",very effective in preventing the multiplication of cancer cells
2,"O=C(O)c1ncnc2c1cnn2-c1ccccc1 [Compound X, 1-phenyl-1H-pyrazolo[3,4-d]pyrimidine-4-carboxylic acid]",effective in preventing the multiplication of cancer cells
3,"NC(=NO)c1ncnc2c1cnn2-c1ccccc1 [Compound VI, 1-phenyl-1H-pyrazolo[3,4-d]pyrimidine-4-carboxamidoxime]",effective in preventing the multiplication of cancer cells
4,"NC(=S)c1ncnc2c1cnn2-c1ccccc1 [Compound XI, 1-phenyl-1H-pyrazolo[3,4-d]pyrimidine-4-thiocarboxamide]",effective in preventing the multiplication of cancer cells
5,"NC(=O)c1ncnc2c1cnn2-c1ccccc1 [Compound IV, 1-phenyl-1H-pyrazolo[3,4-d]pyrimidine-4-carboxamide]",effective in preventing the multiplication of cancer cells

# Same assay, conditions: number of mice died in the group during 14 days after transplantation; 1 mg daily intraabdominal injection; dosage period 10 days (I, IV) or 7 days (XI, VI, X)
row,SMILES,"Toxicity, ratio of died mice"
1,"N#Cc1ncnc2c1cnn2-c1ccccc1 [Compound I, 1-phenyl-1H-pyrazolo[3,4-d]pyrimidine-4-carbonitrile]",1/5
2,"O=C(O)c1ncnc2c1cnn2-c1ccccc1 [Compound X, 1-phenyl-1H-pyrazolo[3,4-d]pyrimidine-4-carboxylic acid]",0/4
3,"NC(=NO)c1ncnc2c1cnn2-c1ccccc1 [Compound VI, 1-phenyl-1H-pyrazolo[3,4-d]pyrimidine-4-carboxamidoxime]",0/4
4,"NC(=S)c1ncnc2c1cnn2-c1ccccc1 [Compound XI, 1-phenyl-1H-pyrazolo[3,4-d]pyrimidine-4-thiocarboxamide]",0/4
5,"NC(=O)c1ncnc2c1cnn2-c1ccccc1 [Compound IV, 1-phenyl-1H-pyrazolo[3,4-d]pyrimidine-4-carboxamide]",0/5

# Same assay, conditions: tumor weight sample/control, 14 days after inoculation; 1 mg daily intraabdominal injection; control 4.44 ± 1.02 g (I, IV), 1.36 ± 0.15 g (XI, VI), 1.52 ± 0.27 g (X)
row,SMILES,Ratio of S/C
1,"N#Cc1ncnc2c1cnn2-c1ccccc1 [Compound I, 1-phenyl-1H-pyrazolo[3,4-d]pyrimidine-4-carbonitrile]",9.7%
2,"O=C(O)c1ncnc2c1cnn2-c1ccccc1 [Compound X, 1-phenyl-1H-pyrazolo[3,4-d]pyrimidine-4-carboxylic acid]",75.0%
3,"NC(=NO)c1ncnc2c1cnn2-c1ccccc1 [Compound VI, 1-phenyl-1H-pyrazolo[3,4-d]pyrimidine-4-carboxamidoxime]",31.6%
4,"NC(=S)c1ncnc2c1cnn2-c1ccccc1 [Compound XI, 1-phenyl-1H-pyrazolo[3,4-d]pyrimidine-4-thiocarboxamide]",46.3%
5,"NC(=O)c1ncnc2c1cnn2-c1ccccc1 [Compound IV, 1-phenyl-1H-pyrazolo[3,4-d]pyrimidine-4-carboxamide]",68.7%

# Tested on: not listed separately
# Assay: Stability of the compound
# Assay type: physicochemical
# Details: not given
row,SMILES,stability
1,"N#Cc1ncnc2c1cnn2-c1ccccc1 [Compound I, 1-phenyl-1H-pyrazolo[3,4-d]pyrimidine-4-carbonitrile]",stable

# Tested on: not listed separately
# Assay: Acute toxicity, LD50 by oral administration
# Details: in vivo, mouse
row,SMILES,LD50
1,"N#Cc1ncnc2c1cnn2-c1ccccc1 [Compound I, 1-phenyl-1H-pyrazolo[3,4-d]pyrimidine-4-carbonitrile]",100 mg/kg
